Experimental data: PMC12446476 (Nature Communications, 2025)
“And” between values parts separate entries of the source, which are not always exact repeats. Equal entries are not always repeated.

System: N. gonorrhoeae
Experiment: N. gonorrhoeae murine vaginal infection model, efficacy
Assay type: in vivo, mouse
Conditions: vaginal lavage, individual mice, BID
Method: The N. gonorrhoeae female mouse vaginal model[45] was performed in accordance with the Guide for Care and Use of Laboratory Animals[75]. Animal rooms were maintained at a temperature range of 20–24 °C and humidity between 30% and 70%, with 12 h light/dark cycles. Ovariectomized BALB/c female mice (5–6 weeks, BioLASCO Taiwan Co., Ltd.) were treated with estradiol (0.23 mg/mouse) two days before infection and on the day of infection. Ovariectomized mice were used to avoid staging mice before treating them with estradiol. Beginning two days prior to infection and maintained until the end of the study, animals were treated twice daily with streptomycin (1.2 mg/mouse) and vancomycin (0.6 mg/mouse) each via intraperitoneal (IP) injection and received trimethoprim sulfate in the drinking water (0.4 mg/mL) to control vaginal microflora. Animals were anesthetised with pentobarbital (80 mg/kg), the vagina was rinsed with 50 mM HEPES (pH 7.4), and then inoculated with N. gonorrhoeae in pre-warmed PBS (0.02 mL/mouse containing ~1 × 10^5 CFU).
Control groups received either a single IP injection of ceftriaxone or 5% dextrose (vehicle) twice daily. Animals were sacrificed via CO2 asphyxiation at either 2 h (baseline), 26 and/or 50 h post-infection. Vaginal lavage was performed twice with 200 µL GC broth containing 0.05% saponin to recover bacteria. Bacterial burden in the lavage fluids was determined by performing 10-fold serial dilutions and plating on chocolate agar plates. Four strains were assessed using the model; ATCC 700825 is naturally streptomycin-resistant, whereas AR Bank0179-15, AR Bank0181-17 and WHO X-07 are derivatives of AR Bank0179, AR Bank0181 and WHO X, respectively, that were engineered for streptomycin resistance for use in the model.

[1] = N. gonorrhoeae AR Bank0179-15, Debio 1453P 20 mg/kg PO, 48h
[2] = N. gonorrhoeae AR Bank0179-15, Debio 1453P 30 mg/kg PO, 24h
[3] = N. gonorrhoeae AR Bank0179-15, Debio 1453P 30 mg/kg PO, 48h
[4] = N. gonorrhoeae AR Bank0179-15, Debio 1453P 40 mg/kg PO, 24h
[5] = N. gonorrhoeae AR Bank0179-15, Debio 1453P 40 mg/kg PO, 48h
[6] = N. gonorrhoeae AR Bank0179-15, Debio 1453P 80 mg/kg PO, 24h
[7] = N. gonorrhoeae AR Bank0179-15, Debio 1453P 80 mg/kg PO, 48h
[8] = N. gonorrhoeae AR Bank0181-17, Debio 1453P 20 mg/kg PO, 24h
[9] = N. gonorrhoeae AR Bank0181-17, Debio 1453P 30 mg/kg PO, 24h
[10] = N. gonorrhoeae AR Bank0181-17, Debio 1453P 40 mg/kg PO, 24h
[11] = N. gonorrhoeae AR Bank0181-17, Debio 1453P 80 mg/kg PO, 24h
[12] = N. gonorrhoeae ATCC 700825, Debio 1453P 10 mg/kg PO, 24h
[13] = N. gonorrhoeae ATCC 700825, Debio 1453P 20 mg/kg PO, 24h

Structure (SMILES): Cc1c(CN(C)C(=O)/C=C/c2cnc3c(c2)N[C@H](C)[C@H](OP(=O)([O-])[O-])C(=O)N3)oc2ccccc12.[Na+].[Na+] [Debio 1453 P]
- CFU/mL lavage fluid [1]: <5 CFU/mL and 21100 CFU/mL and 105 CFU/mL and 6100 CFU/mL
- Log10(CFU/mL lavage fluid) [1]: <0.70 Log10(CFU/mL lavage fluid) and 4.32 Log10(CFU/mL lavage fluid) and 2.02 Log10(CFU/mL lavage fluid) and 3.79 Log10(CFU/mL lavage fluid)
- CFU/mL lavage fluid [2]: <5 CFU/mL and 545 CFU/mL and 85 CFU/mL and 5500 CFU/mL and 125 CFU/mL
- Log10(CFU/mL lavage fluid) [2]: <0.70 Log10(CFU/mL lavage fluid) and 2.74 Log10(CFU/mL lavage fluid) and 1.93 Log10(CFU/mL lavage fluid) and 3.74 Log10(CFU/mL lavage fluid) and 2.1 Log10(CFU/mL lavage fluid)
- CFU/mL lavage fluid [3]: <5 CFU/mL and 205 CFU/mL
- Log10(CFU/mL lavage fluid) [3]: <0.70 Log10(CFU/mL lavage fluid) and 2.31 Log10(CFU/mL lavage fluid)
- CFU/mL lavage fluid [4]: 7600 CFU/mL and <5 CFU/mL and 200 CFU/mL and 115 CFU/mL
- Log10(CFU/mL lavage fluid) [4]: 3.88 Log10(CFU/mL lavage fluid) and <0.70 Log10(CFU/mL lavage fluid) and 2.3 Log10(CFU/mL lavage fluid) and 2.06 Log10(CFU/mL lavage fluid)
- CFU/mL lavage fluid [5]: 65 CFU/mL and <5 CFU/mL
- Log10(CFU/mL lavage fluid) [5]: 1.81 Log10(CFU/mL lavage fluid) and <0.70 Log10(CFU/mL lavage fluid)
- CFU/mL lavage fluid [6]: <5 CFU/mL
- Log10(CFU/mL lavage fluid) [6]: <0.70 Log10(CFU/mL lavage fluid)
- CFU/mL lavage fluid [7]: <5 CFU/mL
- Log10(CFU/mL lavage fluid) [7]: <0.70 Log10(CFU/mL lavage fluid)
- CFU/mL lavage fluid [8]: 1880000 CFU/mL and 790000 CFU/mL and 670000 CFU/mL and 810000 CFU/mL and 720000 CFU/mL
- Log10(CFU/mL lavage fluid) [8]: 6.27 Log10(CFU/mL lavage fluid) and 5.9 Log10(CFU/mL lavage fluid) and 5.83 Log10(CFU/mL lavage fluid) and 5.91 Log10(CFU/mL lavage fluid) and 5.86 Log10(CFU/mL lavage fluid)
- CFU/mL lavage fluid [9]: 380000 CFU/mL and 1120000 CFU/mL and 11300 CFU/mL and 201000 CFU/mL and 620000 CFU/mL
- Log10(CFU/mL lavage fluid) [9]: 5.58 Log10(CFU/mL lavage fluid) and 6.05 Log10(CFU/mL lavage fluid) and 4.05 Log10(CFU/mL lavage fluid) and 5.3 Log10(CFU/mL lavage fluid) and 5.79 Log10(CFU/mL lavage fluid)
- CFU/mL lavage fluid [10]: 11500 CFU/mL and 123000 CFU/mL and 200000 CFU/mL and 830000 CFU/mL and 730000 CFU/mL
- Log10(CFU/mL lavage fluid) [10]: 4.06 Log10(CFU/mL lavage fluid) and 5.09 Log10(CFU/mL lavage fluid) and 5.3 Log10(CFU/mL lavage fluid) and 5.92 Log10(CFU/mL lavage fluid) and 5.86 Log10(CFU/mL lavage fluid)
- CFU/mL lavage fluid [11]: 275 CFU/mL
- Log10(CFU/mL lavage fluid) [11]: 2.44 Log10(CFU/mL lavage fluid)
- CFU/mL lavage fluid [12]: 50000 CFU/mL and 21700 CFU/mL and 23000 CFU/mL and 15500 CFU/mL and 490000 CFU/mL
- Log10(CFU/mL lavage fluid) [12]: 4.7 Log10(CFU/mL lavage fluid) and 4.34 Log10(CFU/mL lavage fluid) and 4.36 Log10(CFU/mL lavage fluid) and 4.19 Log10(CFU/mL lavage fluid) and 5.69 Log10(CFU/mL lavage fluid)
- CFU/mL lavage fluid [13]: 7500 CFU/mL and 5100 CFU/mL and 204000 CFU/mL and 15100 CFU/mL
- Log10(CFU/mL lavage fluid) [13]: 3.88 Log10(CFU/mL lavage fluid) and 3.71 Log10(CFU/mL lavage fluid) and 5.31 Log10(CFU/mL lavage fluid) and 4.18 Log10(CFU/mL lavage fluid)
